# Values of other authors, collected in patent US20130039995A1, “DERMATOLOGICAL COMPOSITIONS COMPRISING AT LEAST ONE REINOID COMPOUND, AN ANTI-IRRITANT COMPOUND AND BENZOYL PEROXIDE” (Galderma Research & Development, priority 2007, published 2013).
smiles,measurement,setting,value
O=C(OOC(=O)c1ccccc1)c1ccccc1 [benzoyl peroxide],degradation of benzoyl peroxide in solution,"in solution in ethanol, propylene glycol and mixtures of PEG 400 and water, depends on type of solvent and its concentration",degrades more or less rapidly
same,degradation of benzoyl peroxide in suspension on storage,"in suspension (disperse form) in water and in propylene glycol, after 90 days of storage",not degraded
